Laboratory results: patent publication US20200405868A1, “GEL-FORMING POLYPEPTIDES” (priority 2018, published 2020)

Assay: Compound gel-forming ability in water (visual inspection, tube tapping assay, tilted tube assay);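 also: peptides mixed with de-ionized water at about 22-25 °C, judged after 20 min by eye plus tube tapping (10 taps, moves counted) and 90° tilt mobility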
Assay type: physicochemical
Conditions: for gel formation at 11% w/w: 11% w/w in water; for gel formation at 20% w/w: 20% w/w in water; for Physical property at 11% w/w: 11% w/w in aqueous solution, room temperature; for gel formation in aqueous solution, 11% / gel formation in aqueous solution, 20% / gel formation in aqueous solution, 6% / gel formation in aqueous solution, 3%: Table 3; for gel formation in aqueous solution, 11% / propensity to form gels, wild-type counterparts, 11% / propensity to form gels, chimeric or mutated polypeptides, 11%: 11% w/w; for gel formation at 6% w/w: 6% w/w in water; for gel formation in aqueous solution, 6% / propensity to form gels, chimeric or mutated polypeptides, 6% / propensity to form gels, wild-type counterparts, 6%: 6% w/w; for gel formation in aqueous solution, 3% / propensity to form gels, chimeric or mutated polypeptides, 3%: 3% w/w; for gel formation at the selected concentration: selected concentration (i.e., at 30%, 20%, 11%, or 6% w/w)
Experimental: Determination of Compound Gel-forming Ability in Water: To determine the solubility of polypeptides at room temperature, 1, 2, 3, 4, 5, 20, or 100 mg of a selected peptide is weighed and deposited into a clear plastic or glass vial and an aliquot of de-ionized water was then added to the vial. The procedure takes place in a room which is maintained at approximately 22-25° C. […] Insoluble peptides sample retained the particles or paste-like characteristics after 20 min of reaction. In addition to visual inspection, we performed a tube tapping assay and a tilted tube assay to differentiate the gelling status of peptide solutions.
To determine the solubility of polypeptides at room temperature, 1, 2, 3, 4, 5, 20, or 100 mg of a selected peptide is weighed and deposited into a clear plastic vial and an aliquot of de-ionized water was then added to the vial. The procedure takes place in a room which is maintained at approximately 22-25° C. Polypeptide sample which is considered soluble dissolves instantly in water and stays as a clear solution without obvious macroscopic change in viscosity at 20 min after mixing with water. […] If macroscopic particles of peptides remain in the solution at 20 min after mixing with water, the peptide is considered insoluble or precipitated at the given concentration. In this case, the quality of peptides is further judged by two other criteria: (1) mobility following a tapping of the tube (tube tapping assay) and (2) mobility flowing tilting the tube by 900 (tilted tube assay). In the first assay, the tube is tapped with the finger for 10 times, and the number of times that the body of the solution changes position is recorded. An aqueous solution such as water will have a score of 9 or 10 in this assay; meaning that the body of the liquid moves every time when one taps the tube. […] Those with moderate viscosity form liquid gel that changes the conformation slowly when the container tube is tapped with a finger or tilted. […] If macroscopic change in the position of the body of gel was observed 5-9 time out of 10 separate tapping tests, the gel is considered a liquid gel. The high viscosity of a liquid gel is further confirmed using the tilted tube assay. […] If the liquid or gel body takes more than 15 seconds to flow to the bottom of the tilted tube, the resulting aqueous mass is considered a liquid gel.
To allow systematic analysis of the gel-forming ability, the assay was first conducted at a peptide concentration of 11% w/w in aqueous solution. The peptides analyzed included functional regulators of cell surface receptors, enzymes, complement factors, antimicrobial peptides, immunomodulators, therapeutic peptides, cell-penetrating peptide, antigens, matrikines, and analogs of CGRP, adrenomedullin and adenomedullin 2 (or intermedin).

| Molecule | gel formation at 11% w/w | propensity to form gels, wild-type counterparts, 6% (Table 5) | Physical property at 11% w/w (Table 1) | gel formation in aqueous solution, 11% | propensity to form gels, wild-type counterparts, 11% (Table 5) | gel formation at 6% w/w | propensity to form gels, chimeric or mutated polypeptides, 11% (Table 5) | gel formation in aqueous solution, 6% | also measured |
| --- | --- | --- | --- | --- | --- | --- | --- | --- | --- |
| SLRRSSCFGGRMDRIGAQSGLGCNSFRY-NH2 [SEQ ID NO:41, reference compound] | does not form gel | – | AS/IS | AS/IS (AS/IS for aqueous solution or insoluble) | AS/IS | – | – | – | gel formation at 20% w/w: does not form gel; gel formation in aqueous solution, 20% (20% w/w): AS/IS (AS/IS for aqueous solution or insoluble); propensity to form gels, wild-type counterparts, 20% (Table 5, 20% w/w): AS/IS |
| YIGSR-NH2 [SEQ ID NO:39, reference compound] | – | – | AS/IS | AS/IS (AS/IS for aqueous solution or insoluble) | AS/IS | – | – | – | – |
| Pal-KVQKLSAPVDPSSPHSY-miniPEG-YNWNSFGLRF-NH2 [SEQ ID NO:208] | – | – | – | – | – | – | – | – | gel formation in aqueous solution, 20% (20% w/w): SS (SS for semisolid gel); propensity to form gels, chimeric or mutated polypeptides, 20% (Table 5, 20% w/w): SS (An ability to form semisolid gel is represented by an SS) |
| Pal-HSYFFGLM-NH2 [SEQ ID NO:253] | – | – | – | SS (SS for semisolid gel) | – | – | SS (An ability to form semisolid gel is represented by an SS) | AS/IS (AS/IS for aqueous solution or insoluble) | propensity to form gels, chimeric or mutated polypeptides, 6% (Table 5): AS/IS |
| Y-(D-Met)-FHLMD-NH2 [SEQ ID NO:21, reference compound] | do not form gels | AS/IS | AS/IS | AS/IS (AS/IS for aqueous solution or insoluble) | AS/IS | do not form gels | – | AS/IS (AS/IS for aqueous solution or insoluble) | – |
| Pal-KVQKLSAPVDPSSPHSY-miniPEG-EHWSY-(D-2Nal)-LRPG-NH2 [SEQ ID NO:201] | semisolid gel | – | – | SS (SS for semisolid gel) | – | semisolid gel | SS (An ability to form semisolid gel is represented by an SS) | SS (SS for semisolid gel) | gel formation at 3% w/w (3% w/w in water): semisolid gel; gel formation in aqueous solution, 3%: SS (SS for semisolid gel); propensity to form gels, chimeric or mutated polypeptides, 3% (Table 5): SS (An ability to form semisolid gel is represented by an SS); propensity to form gels, chimeric or mutated polypeptides, 6% (Table 5): SS (An ability to form semisolid gel is represented by an SS) |
| Pal-HSY-NH2 [SEQ ID NO:120] | – | – | – | – | – | – | – | – | Physical property at 11% w/w (Table 2): SS (SS for semisolid gel) |
| CC[C@H](C)[C@H](NC(=O)[C@@H]1CCCN1C(=O)CNC(=O)[C@H](Cc1ccccc1)NC(=O)[C@H](CC(N)=O)NC(=O)[C@H](CC(N)=O)NC(=O)[C@H](CO)NC(=O)[C@H](CO)NC(=O)[C@H](Cc1c[nH]cn1)NC(=O)[C@@H](NC(=O)[C@H](CC(C)C)NC(=O)[C@H](Cc1ccccc1)NC(=O)[C@H](CC(N)=O)NC(=O)[C@H](C)NC(=O)[C@H](CC(C)C)NC(=O)[C@H](CCCNC(=N)N)NC(=O)[C@H](CCC(N)=O)NC(=O)[C@@H](NC(=O)[C@H](C)NC(=O)[C@@H]1CSSC[C@H](NC(=O)[C@@H](N)CCCCN)C(=O)N[C@@H](CC(N)=O)C(=O)N[C@@H]([C@@H](C)O)C(=O)N[C@@H](C)C(=O)N[C@@H]([C@@H](C)O)C(=O)N1)[C@@H](C)O)C(C)C)C(=O)N[C@@H](CC(C)C)C(=O)N1CCC[C@H]1C(=O)N1CCC[C@H]1C(=O)N[C@H](C(=O)N[C@@H](CC(N)=O)C(=O)N[C@H](C(=O)NCC(=O)N[C@@H](CO)C(=O)N[C@@H](CC(N)=O)C(=O)N[C@H](C(=O)N[C@@H](Cc1ccc(O)cc1)C(N)=O)[C@@H](C)O)C(C)C)[C@@H](C)O [SEQ ID NO:4, reference compound] | semisolid gel | AS/IS | SS (SS for semisolid gel) | AS/IS (AS/IS for aqueous solution or insoluble) | SS (An ability to form semisolid gel is represented by an SS) | does not form gel | – | – | gel formation in aqueous solution, 20% (20% w/w): SS (SS for semisolid gel) |
| Pal-HSY-(D-Phe)-QWAVGHL-(4-Cl)Phe-NH2 [SEQ ID NO:255] | – | – | – | SS (SS for semisolid gel) | – | – | SS (An ability to form semisolid gel is represented by an SS) | – | propensity to form gels, chimeric or mutated polypeptides, 3% (Table 5): AS/IS |
| (D-Tyr)QWAV(β-Ala)HF(Nle)-NH2 [SEQ ID NO:20, reference compound] | does not form gel | AS/IS | AS/IS | AS/IS (AS/IS for aqueous solution or insoluble) | AS/IS | does not form gel | – | AS/IS (AS/IS for aqueous solution or insoluble) | – |
| (Glp)RPRLSHKGP(Nle)PF-NH2 (pyroGlu; Nle; C-terminal amide) [SEQ ID NO:18, reference compound] | does not form gel | AS/IS | AS/IS | AS/IS (AS/IS for aqueous solution or insoluble) | AS/IS | does not form gel | – | AS/IS (AS/IS for aqueous solution or insoluble) | gel formation at 20% w/w: does not form gel; gel formation in aqueous solution, 20% (20% w/w): AS/IS (AS/IS for aqueous solution or insoluble); propensity to form gels, wild-type counterparts, 20% (Table 5, 20% w/w): AS/IS; gel formation at the selected concentration: only form aqueous solution or are insoluble |
| Pal-KVQNLSAPVDPSSPHSY-NH2 [SEQ ID NO:104] | – | – | – | – | – | – | – | – | Physical property at 11% w/w (Table 2): AS/IS (AS/IS for aqueous solution or insoluble) |
| Pal-SSPHSY-miniPEG-HGDGSFSDEMNTILDNLAARDFINWLIQTKITD-OH [SEQ ID NO:222] | semisolid gel | – | – | SS (SS for semisolid gel) | – | liquid gel | SS (An ability to form semisolid gel is represented by an SS) | – | – |
| Pal-KSY-NH2 [SEQ ID NO:121] | – | – | – | – | – | – | – | – | Physical property at 11% w/w (Table 2): SS (SS for semisolid gel) |
| Pal-KVQKLSAPVDPSSPHSY-miniPEG-(D-Tyr)QWAV(β-Ala)HF(Nle)-NH2 [SEQ ID NO:209] | – | – | – | SS (SS for semisolid gel) | – | – | SS (An ability to form semisolid gel is represented by an SS) | SS (SS for semisolid gel) | gel formation in aqueous solution, 3%: SS (SS for semisolid gel); propensity to form gels, chimeric or mutated polypeptides, 3% (Table 5): SS (An ability to form semisolid gel is represented by an SS); propensity to form gels, chimeric or mutated polypeptides, 6% (Table 5): SS (An ability to form semisolid gel is represented by an SS) |

Now from value to molecule, other results behind:

| gel formation at 11% w/w | propensity to form gels, wild-type counterparts, 6% (Table 5) | Molecule | Physical property at 11% w/w (Table 1) | gel formation in aqueous solution, 11% | propensity to form gels, wild-type counterparts, 11% (Table 5) | gel formation at 6% w/w | propensity to form gels, chimeric or mutated polypeptides, 11% (Table 5) | gel formation in aqueous solution, 6% | also measured |
| --- | --- | --- | --- | --- | --- | --- | --- | --- | --- |
| semisolid gel | – | Pal-KVQKLSAPVDPSSPHSY-miniPEG-CSNLSTCVLGKLSQELHKLQTYPRTNTGSGTP-NH2 [SEQ ID NO:217] | – | SS (SS for semisolid gel) | – | liquid gel | SS (An ability to form semisolid gel is represented by an SS) | – | – |
| semisolid gel | – | Pal-SDAAVDTSSEITTKDLKEKKEVVEEAEN-NH2 [SEQ ID NO:268] | – | SS (SS for semisolid gel) | – | – | SS (An ability to form semisolid gel is represented by an SS) | – | – |
| semisolid gel | AS/IS | CC[C@H](C)[C@@H]1NC(=O)[C@H](Cc2ccc(O)cc2)NC(=O)[C@@H](N)CSSC[C@@H](C(=O)N2CCC[C@H]2C(=O)N[C@@H](CC(C)C)C(=O)NCC(N)=O)NC(=O)[C@H](CC(N)=O)NC(=O)[C@H](CCC(N)=O)NC1=O [SEQ ID NO:5, reference compound] | SS (SS for semisolid gel) | SS (SS for semisolid gel) | SS (An ability to form semisolid gel is represented by an SS) | does not form liquid or semisolid gel | – | AS/IS (AS/IS for aqueous solution or insoluble) | gel formation at the selected concentration: only form aqueous solution or are insoluble |
| semisolid gel | – | Pal-SSPHSY-miniPEG-RGD-NH2 [SEQ ID NO:247] | – | SS (SS for semisolid gel) | – | – | SS (An ability to form semisolid gel is represented by an SS) | – | – |
| – | AS/IS | RPKPQQFF-Sar-L-Met-(O2)-NH2 [SEQ ID NO:69, reference compound] | – | AS/IS (AS/IS for aqueous solution or insoluble) | AS/IS | – | – | AS/IS (AS/IS for aqueous solution or insoluble) | gel formation in aqueous solution, 20% (20% w/w): AS/IS (AS/IS for aqueous solution or insoluble); propensity to form gels, wild-type counterparts, 20% (Table 5, 20% w/w): AS/IS |
| does not form a gel | AS/IS | KRPPGFS-(Dβal)-Ile-NH2 [SEQ ID NO:65, reference compound] | – | AS/IS (AS/IS for aqueous solution or insoluble) | AS/IS | does not form a gel | – | AS/IS (AS/IS for aqueous solution or insoluble) | – |
| liquid gel | – | (G1p)RPRLSHKGP(Nle)PF-miniPEG-K(Pal)VQKLSAPVDPSSPHSY-NH2 [SEQ ID NO:206] | – | – | – | – | – | – | gel formation at 20% w/w: liquid gel |
